From US12606552B2, “Bifunctional compound, preparation method therefor, and use thereof” (SUZHOU KINTOR PHARMACEUTICALS, INC., priority 2020, dated 2026)

biological target: T1, AR (Homo sapiens, UniProt P10275, T878A); test: Effects of compounds on AR expression in LNCaP cells (ELISA, DC50); type: cell-based; design: Measurement of the Effects of Drugs on the Expression of AR in Cells by ELISA Method; endogenous in cells; host or cells: LNCaP; details: 24 hours of drug treatment, AR by ELISA
T1 sequence (P10275 1-920 T878A): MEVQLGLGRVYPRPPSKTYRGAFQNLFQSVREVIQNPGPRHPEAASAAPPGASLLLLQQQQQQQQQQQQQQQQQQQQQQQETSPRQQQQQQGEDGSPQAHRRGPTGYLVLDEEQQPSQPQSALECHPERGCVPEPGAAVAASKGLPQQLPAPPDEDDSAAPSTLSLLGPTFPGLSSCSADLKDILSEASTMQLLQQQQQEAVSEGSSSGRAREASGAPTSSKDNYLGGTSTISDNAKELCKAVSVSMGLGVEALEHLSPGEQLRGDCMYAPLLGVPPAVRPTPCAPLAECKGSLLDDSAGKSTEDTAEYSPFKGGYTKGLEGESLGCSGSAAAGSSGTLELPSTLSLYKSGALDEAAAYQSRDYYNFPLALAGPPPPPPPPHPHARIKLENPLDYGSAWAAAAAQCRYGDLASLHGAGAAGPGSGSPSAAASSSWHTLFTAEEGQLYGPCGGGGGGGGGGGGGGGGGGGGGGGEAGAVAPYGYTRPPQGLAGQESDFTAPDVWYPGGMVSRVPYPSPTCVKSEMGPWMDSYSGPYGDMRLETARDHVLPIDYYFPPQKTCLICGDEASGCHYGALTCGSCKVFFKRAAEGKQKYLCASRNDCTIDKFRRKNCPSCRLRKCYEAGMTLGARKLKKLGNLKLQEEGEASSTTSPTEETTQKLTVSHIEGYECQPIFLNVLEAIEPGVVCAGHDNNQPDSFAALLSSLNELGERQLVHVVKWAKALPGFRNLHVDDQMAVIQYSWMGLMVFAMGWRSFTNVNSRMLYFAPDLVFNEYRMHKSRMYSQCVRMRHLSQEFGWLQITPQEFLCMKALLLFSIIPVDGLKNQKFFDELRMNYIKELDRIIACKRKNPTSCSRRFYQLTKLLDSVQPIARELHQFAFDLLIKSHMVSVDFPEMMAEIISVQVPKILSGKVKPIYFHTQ
Method in brief: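 LNCaP cells at about 15,000/well were treated for 24 h with compound at 0.0001–2 μmol/L final. AR in cell lysates was measured by ELISA (OD450). Inhibition was relative to DMSO control after blank subtraction, and DC50 was calculated from it.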

SMILES	DC50 [nM]
COc1c(C#N)ccc(N2C(=O)C(C)(C)N(c3ccc(-c4ccc(OCCCCOCC(=O)N[C@H](C(=O)N5C[C@H](O)C[C@H]5C(=O)NCc5ccc(-c6scnc6C)cc5)C(C)(C)C)cc4)nc3)C2=S)c1F [Compound A185]	49.8
Cc1cc(C(C(=O)N2C[C@H](O)C[C@H]2C(=O)N[C@@H](CC(=O)NCCN2CCC(Oc3ccc(-c4ncc(N5C(=S)N(c6ccc(C#N)c(C(F)(F)F)c6F)C(=O)C5(C)C)cc4F)cc3F)CC2)c2ccc(-c3scnc3C)cc2)C(C)C)on1 (some centres unmarked) [Compound A186]	87
CC1(C)C(=O)N(c2ccc(C#N)c(C(F)(F)F)c2F)C(=S)N1c1cnc(-c2cc(F)c(OC3CCN(C(=O)COc4ccc5c(c4)C(=O)N(C4CCC(=O)NC4=O)C5=O)CC3)c(F)c2)c(F)c1 (centres unmarked) [Compound A189]	329
CC1(C)C(=O)N(c2ccc(C#N)c(C(F)(F)F)c2F)C(=S)N1c1cnc(-c2cc(F)c(OC3CCN(C(=O)COc4cccc5c4C(=O)N(C4CCC(=O)NC4=O)C5=O)CC3)c(F)c2)c(F)c1 (centres unmarked) [Compound A191]	162
COc1c(C#N)ccc(N2C(=O)C(C)(C)N(c3cnc(-c4ccc(OC5CCN(C(=O)COc6ccc7c(c6)C(=O)N(C6CCC(=O)NC6=O)C7=O)CC5)cc4F)c(F)c3)C2=S)c1F (centres unmarked) [Compound A194]	246
COc1c(C#N)ccc(N2C(=O)C(C)(C)N(c3cnc(-c4ccc(OC5CCN(C(=O)COc6cccc7c6C(=O)N(C6CCC(=O)NC6=O)C7=O)CC5)cc4F)c(F)c3)C2=S)c1F (centres unmarked) [Compound A195]	404
COc1c(C#N)ccc(N2C(=O)C(C)(C)N(c3cnc(-c4ccc(OCCCCOCC(=O)N[C@H](C(=O)N5C[C@H](O)C[C@H]5C(=O)NCc5ccc(-c6scnc6C)cc5)C(C)(C)C)cc4C(F)(F)F)c(F)c3)C2=S)c1F [Compound A196]	39
COc1c(C#N)ccc(N2C(=O)C(C)(C)N(c3cnc(-c4ccc(OCCNC(=O)COc5ccc6c(c5)C(=O)N(C5CCC(=O)NC5=O)C6=O)c(F)c4)c(F)c3)C2=S)c1F (centres unmarked) [Compound A197]	435
Cc1ncsc1-c1c[nH]c([C@@H]2C[C@@H](O)CN2C(=O)[C@@H](NC(=O)COCCCCOc2ccc(-c3ccc(N4C(=S)N(c5ccc(C#N)c(C(F)(F)F)c5F)C(=O)C4(C)C)cn3)cc2)C(C)(C)C)n1 [Compound A198]	42.8
CC(C)(C)[C@H](NC(=O)COCCCCOc1ccc(-c2ncc(N3C(=S)N(c4ccc(C#N)c(C(F)(F)F)c4F)C(=O)C3(C)C)cc2F)c(C(F)(F)F)c1)C(=O)N1C[C@H](O)C[C@H]1c1nc(-c2ccccc2)c[nH]1 [Compound A202]	661
CC(C)(C)[C@H](NC(=O)COCCCCOc1ccc(-c2ccc(N3C(=S)N(c4ccc(C#N)c(C(F)(F)F)c4F)C(=O)C3(C)C)cn2)cc1)C(=O)N1C[C@H](O)C[C@H]1c1nc(-c2cncs2)c[nH]1 [Compound A203]	71.9
CC(C)(C)[C@H](NC(=O)COCCCCOc1ccc(-c2ncc(N3C(=S)N(c4ccc(C#N)c(C(F)(F)F)c4F)C(=O)C3(C)C)cc2F)c(C(F)(F)F)c1)C(=O)N1C[C@H](O)C[C@H]1c1nc(-c2cncs2)c[nH]1 [Compound A204]	36.4
CC(C)(C)[C@H](NC(=O)COCCCCOc1ccc(-c2ccc(N3C(=S)N(c4ccc(C#N)c(C(F)(F)F)c4F)C(=O)C3(C)C)cn2)cc1)C(=O)N1C[C@H](O)C[C@H]1c1nc(-c2cccs2)c[nH]1 [Compound A209]	856
CC(C)(C)[C@H](NC(=O)COCCCCOc1ccc(-c2ncc(N3C(=S)N(c4ccc(C#N)c(C(F)(F)F)c4F)C(=O)C3(C)C)cc2F)c(C(F)(F)F)c1)C(=O)N1C[C@H](O)C[C@H]1c1nc(-c2cccs2)c[nH]1 [Compound A210]	834
CC(C)(C)[C@H](NC(=O)COCCCCOc1ccc(-c2ccc(N3C(=S)N(c4ccc(C#N)c(C(F)(F)F)c4F)C(=O)C3(C)C)cn2)cc1)C(=O)N1C[C@H](O)C[C@H]1c1nc(-c2cccnc2)c[nH]1 [Compound A214]	173
COc1c(C#N)ccc(N2C(=O)C(C)(C)N(c3cnc(-c4ccc(OCCCCOCC(=O)N[C@H](C(=O)N5C[C@H](O)C[C@H]5C(=O)NCc5ccc(-c6scnc6C)cc5)C(C)(C)C)c(F)c4)c(F)c3)C2=S)c1F [Compound A215]	83.1

SMILES	DC50 [nM]
CC(C)(C)[C@H](NC(=O)COCCCCOc1ccc(-c2ncc(N3C(=S)N(c4ccc(C#N)c(C(F)(F)F)c4F)C(=O)C3(C)C)cc2F)c(C(F)(F)F)c1)C(=O)N1C[C@H](O)C[C@H]1C(=O)NCc1cnco1 [Compound A219]	589
Cc1ncsc1-c1cn(C)c([C@@H]2C[C@@H](O)CN2C(=O)[C@@H](NC(=O)COCCCCOc2ccc(-c3ccc(N4C(=S)N(c5ccc(C#N)c(C(F)(F)F)c5F)C(=O)C4(C)C)cn3)cc2)C(C)(C)C)n1 [Compound A220]	289
Cc1ncsc1-c1cn(C)c([C@@H]2C[C@@H](O)CN2C(=O)[C@@H](NC(=O)COCCCCOc2ccc(-c3ncc(N4C(=S)N(c5ccc(C#N)c(C(F)(F)F)c5F)C(=O)C4(C)C)cc3F)c(C(F)(F)F)c2)C(C)(C)C)n1 [Compound A221]	144
Cc1ncoc1-c1c[nH]c([C@@H]2C[C@@H](O)CN2C(=O)[C@@H](NC(=O)COCCCCOc2ccc(-c3ncc(N4C(=S)N(c5ccc(C#N)c(C(F)(F)F)c5F)C(=O)C4(C)C)cc3F)c(C(F)(F)F)c2)C(C)(C)C)n1 [Compound A224]	75.7
Cc1ncoc1-c1c[nH]c([C@@H]2C[C@@H](O)CN2C(=O)[C@@H](NC(=O)COCCCCOc2ccc(-c3ccc(N4C(=S)N(c5ccc(C#N)c(C(F)(F)F)c5F)C(=O)C4(C)C)cn3)cc2)C(C)(C)C)n1 [Compound A225]	92.1
CC(C)(C)[C@H](NC(=O)COCCCCOc1ccc(-c2ncc(N3C(=S)N(c4ccc(C#N)c(C(F)(F)F)c4F)C(=O)C3(C)C)cc2F)c(C(F)(F)F)c1)C(=O)N1C[C@H](O)C[C@H]1c1nc(-c2cncnc2)c[nH]1 [Compound A227]	24.8
CC(C)(C)[C@H](NC(=O)COCCCCOc1ccc(-c2ccc(N3C(=S)N(c4ccc(C#N)c(C(F)(F)F)c4F)C(=O)C3(C)C)cn2)cc1)C(=O)N1C[C@H](O)C[C@H]1c1nc(-c2cncnc2)c[nH]1 [Compound A228]	107
Cn1cncc1-c1c[nH]c([C@@H]2C[C@@H](O)CN2C(=O)[C@@H](NC(=O)COCCCCOc2ccc(-c3ccc(N4C(=S)N(c5ccc(C#N)c(C(F)(F)F)c5F)C(=O)C4(C)C)cn3)cc2)C(C)(C)C)n1 [Compound A232]	41.3
Cn1cncc1-c1c[nH]c([C@@H]2C[C@@H](O)CN2C(=O)[C@@H](NC(=O)COCCCCOc2ccc(-c3ncc(N4C(=S)N(c5ccc(C#N)c(C(F)(F)F)c5F)C(=O)C4(C)C)cc3F)c(C(F)(F)F)c2)C(C)(C)C)n1 [Compound A233]	194
CNC(=O)c1ccc(-c2c[nH]c([C@@H]3C[C@@H](O)CN3C(=O)[C@@H](NC(=O)COCCCCOc3ccc(-c4ccc(N5C(=S)N(c6ccc(C#N)c(C(F)(F)F)c6F)C(=O)C5(C)C)cn4)cc3)C(C)(C)C)n2)cc1 [Compound A234]	26.1
CNC(=O)c1ccc(-c2c[nH]c([C@@H]3C[C@@H](O)CN3C(=O)[C@@H](NC(=O)COCCCCOc3ccc(-c4ncc(N5C(=S)N(c6ccc(C#N)c(C(F)(F)F)c6F)C(=O)C5(C)C)cc4F)c(C(F)(F)F)c3)C(C)(C)C)n2)cc1 [Compound A235]	125
Cc1ncsc1-c1ccc(CNC(=O)[C@@H]2C[C@@H](O)CN2C(=O)[C@@H](NC(=O)Cc2ccc(C(=O)Nc3ccc(-c4ccc(N5C(=S)N(c6ccc(C#N)c(C(F)(F)F)c6F)C(=O)C5(C)C)cn4)cc3)cc2)C(C)(C)C)cc1 [Compound A240]	264
Cc1ncsc1-c1ccc(CNC(=O)[C@@H]2C[C@@H](O)CN2C(=O)[C@@H](NC(=O)c2ccc(C(F)(F)C(=O)Nc3ccc(-c4ccc(N5C(=S)N(c6ccc(C#N)c(C(F)(F)F)c6F)C(=O)C5(C)C)cn4)cc3)cc2)C(C)(C)C)cc1 [Compound A241]	807
Cc1ncsc1-c1ccc(CNC(=O)[C@@H]2C[C@@H](O)CN2C(=O)[C@@H](NC(=O)c2ccc(CC(=O)Nc3ccc(-c4ccc(N5C(=S)N(c6ccc(C#N)c(C(F)(F)F)c6F)C(=O)C5(C)C)cn4)cc3)cc2)C(C)(C)C)cc1 [Compound A244]	173
Cc1ncsc1-c1ccc(CNC(=O)[C@@H]2C[C@@H](O)CN2C(=O)[C@@H](NC(=O)COCCCOCCCCCOc2ccc(N3C(=S)N(c4ccc(C#N)c(C(F)(F)F)c4F)C(=O)C3(C)C)cn2)C(C)(C)C)cc1 [Compound A247]	75.5
Cc1ncsc1-c1ccc(CNC(=O)[C@@H]2C[C@@H](O)CN2C(=O)[C@@H](NC(=O)COCCCOCCCCOc2ccc(N3C(=S)N(c4ccc(C#N)c(C(F)(F)F)c4F)C(=O)C3(C)C)cn2)C(C)(C)C)cc1 [Compound A248]	48.8
